Read-outs that look alike come from different tables or passages of the source. Peptide text beside a SMILES is read from it. * marks the point of attachment. Heptanoyl = CCCCCCC(=O)*; Octanoyl = CCCCCCCC(=O)*; Hexanoyl = CCCCCC(=O)*; Pentanoyl = CCCCC(=O)*
Assays:
[1] = system: S. aureus (ATCC 29213, MSSA); type: cell-based, Staphylococcus aureus; settings: for antimicrobial activity against S. aureus (in words): compared with peptide #6 or the parent lipopeptide
Procedure: (§1) S. aureus (ATCC 29213, MSSA, ATCC, Manassas, VA) and E. coli (K-12 MG1655) were streaked on Luria-Bertani (LB) agar plates and incubated at 37° C. overnight. Single colonies were inoculated into 5 ml of LB broth and incubated on a shaker (400 rpm) at 37° C. overnight. The bacterial concentrations were determined by viable count and were adjusted to correlate with approximately 10^9 CFU/ml.
(§2) The broth microdilution method was used to determine minimal inhibitory concentration (MIC) and minimal bactericidal concentration (MBC). Two-fold serial dilutions of the peptides were used, and the final concentrations ranged from 0.19-100 μM. The effect of peptide-antibiotic combinations was investigated by performing a checkerboard analysis. […] The fractional inhibitory concentration (FIC) and fractional bactericidal concentration (FBC) were calculated by the equation (MIC or MBC of peptide in combination/MIC or MBC of peptide […] alone)+(MIC or MBC of antibiotic in combination/MIC or MBC of antibiotic alone). Synergy was defined as FIC/FBC≤0.5, additive when 0.5<FIC/FBC≤1, indifferent when 1<FIC/FBC<2 and antagonistic when FIC/FBC≥2. All experiments were repeated at least three times.

[2] = system: E. coli (K-12 MG1655); experiment: Broth microdilution MIC/MBC; type: cell-based, Escherichia coli; settings: for antimicrobial activity against E. coli (in words): compared with peptide #6 or the parent lipopeptide
Procedure: as §1, §2

[3] = system: E. coli; experiment: Checkerboard analysis of peptide-antibiotic combinations; type: cell-based, Escherichia coli; settings: combined with different antibiotics
Procedure: as §2

[4] = system: S. aureus; experiment: as above; type: cell-based, Staphylococcus aureus; settings: combined with different antibiotics
Procedure: as §2

[5] = system: HaCaT keratinocytes infected with S. aureus; experiment: LDH cytotoxicity and cytokine secretion of S. aureus-infected HaCaT keratinocytes; type: cell-based, human; settings: 24 h, vs positive control
Procedure: After 24 hours of exposure to Staphylococcus aureus (MOI=0.1), and three administrations of L-6-C5-N (2.5, 5, 10, 20 and 40 μM) at 1, 5 and 9 hours post infection. (A) Cytotoxicity, LDH levels normalized against negative control. (B) Interleukin-6. (C) Tumor Necrosis Factor-α. (D) CXC motif ligand 8 levels. (−) indicates negative control (uninfected/unstimulated cells), (+) indicates positive control (S. aureus-infected cells). Statistical analysis was done by ANOVA with Tukey's post hoc test. P-values are indicated by *=[…], ***=0.001.
It was evaluated whether the peptide SEQ ID NO:3 having L-amino acids and an acetylation with five carbon atoms at the N-terminal portion (L-6-C5-N) could effectively reduce an inflammatory response to a bacterial infection to HaCaT keratinocytes. After 24 hours of exposure to Staphylococcus aureus (MOI=0.1), and three administrations of L-6-C5-N SEQ ID NO:3 in different concentrations (2.5, 5, 10, 20 and 40 μM) at 1, 5 and 9 hours post infection, a LDH cytotoxicity assay was performed and IL-6, TNF-α and CXCL-8 concentrations were measured. The symbol (−) indicates negative control (uninfected/unstimulated cells), (+) indicates positive control (S. aureus-infected cells).

[6] = system: human erythrocytes; type: cell-based; settings: red cells of human, 1 h, 100 μM
Procedure: FIG. 4. Hemolytic activity of SEQ ID NO 1 and SEQ ID NO 3. The hemolytic activity was determined on human erythrocytes (15% suspended in PBS) after exposure to A) SEQ ID NO: 3 with increasing length of fatty acid chains and full length PLNC8 β, B) L-enantiomers of SEQ ID NO: 3 with a fatty acid chain length of 5, 6, and 7 carbon (L-6-C5-N; L-6-C6-N; L-6-C7-N), and L-enantiomers of SEQ ID NO 1 with a fatty acid chain length of 5, 6, and 7 carbon (L-6-C5-N-Leu; L-6-C6-N-Leu; L-6-C7-N-Leu), C) D-enantiomers of SEQ ID NO: 3 with a fatty acid chain length of 5, 6, and 7 carbon (D-6-C5-N; D-6-C6-N; D-6-C7-N), and D-enantiomers of SEQ ID NO: 1 with a fatty acid chain length of 5, 6, and 7 carbon (D-6-C5-N-Leu; D-6-C6-N-Leu; D-6-C7-N-Leu). Erythrocytes were exposed to the peptides using the indicated concentrations for 1 h. […]
The hemolytic activity of the peptides was investigated by collecting blood from healthy volunteers in heparinized vacutainers. […] The plates were incubated for 1 h at 37° C. followed by centrifugation for 5 min at 900×g and absorbance measurement of the supernatants at 540 nm. Hemolytic activity (%) was calculated by subtracting the negative control from all values and normalization against the positive control (0.5% Triton X-100), that was set to 100%. […]

| Molecule | MBC S. aureus ([1]; ATCC 29213, 20 h) [µM] | MIC S. aureus ([1]; ATCC 29213, 20 h) [µM] | MBC E. coli ([2]; broth microdilution) [µM] | MIC E. coli ([2]; broth microdilution) [µM] | other results |
| --- | --- | --- | --- | --- | --- |
| Ac-TLGIKILWSAYKHRKT-NH2 [Peptide 5] | >100 | >100 | >100 | >100 | – |
| Ac-WSAYKH-NH2 [Peptide S5, WSAYKH] | – | – | >100 | >100 | – |
| Ac-YTLGIKILWSAYKHRK-NH2 [Peptide 4] | >100 | >100 | >100 | >100 | – |
| 6-C2-N: peptide #6 (SEQ ID NO: 3) acetylated with two carbon atoms at the N-terminal (Ac-LGIKILWSAYKHRKTI-NH2) [Peptide 6-C2-N] | – | – | – | – | interaction with antibiotics (FIC/FBC) against E. coli [3]: additive or synergistic; interaction with antibiotics (FIC/FBC) against S. aureus [4]: additive or synergistic |
| Ac-LGIKILWSAYKHRKTI-NH2 [Peptide 6] | – | – | 50 | 50 | MBC S. aureus ([1]; broth microdilution): 100 µM; MIC S. aureus ([1]; broth microdilution): 100 µM; antimicrobial activity against E. coli (in words) [2]: comparable to the activity of LL-37 |
| Ac-LWSAYKHR-NH2 [Peptide S3] | – | – | >100 | >100 | – |
| Ac-LGIKILWSARKFGKVIEKSF-NH2 [Peptide 16] | >100 | >100 | >100 | >100 | – |
| Ac-WSAYK-NH2 [Peptide S6, WSAYK] | – | – | >100 | >100 | – |
| Ac-LGIKILRSARKFGKVIEKSF-NH2 [Peptide 15] | >100 | >100 | >100 | >100 | – |
| Ac-LGQKILRSARKFGKDIEKSF-NH2 [Peptide 14] | >100 | >100 | >100 | >100 | – |
| Ac-ILWSAYKHR-NH2 [Peptide S2] | – | – | >100 | >100 | – |
| CCCCCCCC(=O)N[C@@H](CC(C)C)C(=O)NCC(=O)N[C@H](C(=O)N[C@@H](CCCCN)C(=O)N[C@H](C(=O)N[C@@H](CC(C)C)C(=O)N[C@@H](Cc1c[nH]c2ccccc12)C(=O)N[C@@H](CO)C(=O)N[C@@H](C)C(=O)N[C@@H](Cc1ccc(O)cc1)C(=O)N[C@@H](CCCCN)C(=O)N[C@@H](Cc1c[nH]cn1)C(=O)N[C@@H](CCCNC(=N)N)C(=O)N[C@@H](CCCCN)C(=O)N[C@H](C(=O)N[C@H](C(N)=O)[C@@H](C)CC)[C@@H](C)O)[C@@H](C)CC)[C@@H](C)CC [Peptide 6-C8-N] (Octanoyl-LGIKILWSAYKHRKTI-NH2) | – | – | 12.5 | 12.5 | antimicrobial activity against S. aureus (in words) [1]: did not affect the antimicrobial activity |
| Ac-LGQKILRSARKFGKTIEKSF-NH2 [Peptide 13] | >100 | >100 | >100 | >100 | – |
| Ac-KILWSAYKHR-NH2 [Peptide S1] | – | – | >100 | >100 | – |
| Ac-LLGIKILWKARKFGKVIEKSF-NH2 [Peptide 18] | >100 | >100 | >100 | 100 | – |
| Ac-LLGIKILWSARKFGKVIEKSF-NH2 [Peptide 17] | >100 | >100 | >100 | >100 | – |
| Ac-WSAYKHR-NH2 [Peptide S4, WSAYKHR] | – | – | >100 | >100 | – |
| 6-C5-N: SEQ ID NO:3 having L-amino acids and an acetylation with five carbon atoms at the N-terminal portion (Pentanoyl-LGIKILWSAYKHRKTI-NH2) [Peptide 6-C5-N] | – | – | – | – | interaction with antibiotics (FIC/FBC) against E. coli [3]: additive or synergistic; antimicrobial activity against S. aureus (in words) [1]: maximum; interaction with antibiotics (FIC/FBC) against S. aureus [4]: additive or synergistic; antimicrobial activity against E. coli (in words) [2]: maximum; IL-6 secretion, infected HaCaT ([5]; MOI=0.1, 2.5-40 μM at 1, 5 and 9 h post infection): significantly reduced; cell lysis (LDH) of S. aureus-infected HaCaT keratinocytes ([5]; MOI=0.1, 2.5-40 μM given at 1, 5 and 9 h post infection): significantly reduced |
| CCCCCCC(=O)N[C@@H](CC(C)C)C(=O)NCC(=O)N[C@H](C(=O)N[C@@H](CCCCN)C(=O)N[C@H](C(=O)N[C@@H](CC(C)C)C(=O)N[C@@H](Cc1c[nH]c2ccccc12)C(=O)N[C@@H](CO)C(=O)N[C@@H](C)C(=O)N[C@@H](Cc1ccc(O)cc1)C(=O)N[C@@H](CCCCN)C(=O)N[C@@H](Cc1c[nH]cn1)C(=O)N[C@@H](CCCNC(=N)N)C(=O)N[C@@H](CCCCN)C(=O)N[C@H](C(=O)N[C@H](C(N)=O)[C@@H](C)CC)[C@@H](C)O)[C@@H](C)CC)[C@@H](C)CC [Peptide 6-C7-N] (Heptanoyl-LGIKILWSAYKHRKTI-NH2) | – | – | – | – | hemolytic activity [6]: around 10% |
| 6-C6-N: L-enantiomer of SEQ ID NO: 3 with a fatty acid chain length of 6 carbon (Hexanoyl-LGIKILWSAYKHRKTI-NH2; also: C6 fatty acid chain, site not given here) [Peptide 6-C6-N] | – | – | – | – | antimicrobial activity against S. aureus (in words) [1]: maximum; antimicrobial activity against E. coli (in words) [2]: maximum |
| Ac-SVPTSVYTLGIKILWSAYKHRKTIEKSFNKGFYH-NH2 (N-terminus and C-terminus assumed) [PLNC8 β, reference compound] | – | – | – | – | MBC S. aureus ([1]; ATCC 29213): >100 µM; MIC S. aureus ([1]; ATCC 29213): >100 µM; MBC E. coli ([2]; K-12): >100 µM; MIC E. coli ([2]; K-12): >100 µM; antimicrobial activity against E. coli (in words) [2]: no activity |
